For this test, the system named is anti-VEGF aptamer. The conditions noted are these: for change in current on injection of VEGF: FET sensor with anti-VEGF aptamer, PBS base current, FIG. 2A. From the text:
Electrodes using a gold thin film and silver nanowires were patterned on a silicon substrate using a photolithography method, and a semi-conductive layer was placed between the electrodes. In this case, silver nanowires were used as a material of the semi-conductive layer. Thereafter, an aptamer (anti-VEGF aptamer) capable of being coupled to a dry eye syndrome biomarker was coupled to the semi-conductive layer.
Specifically, a silver nanowire channel was immersed in an 3-aminopropyldimethyl-ethoxysilane (APDES)/ethanol solution to introduce an amine group, and the silver nanowire channel was immersed in a sodium carbonate buffer including 1 wt % succinic anhydride to substitute the amine group with a carboxyl group. Then, after the silver nanowire channel is immersed in a phosphate buffered saline (PBS) solution, 1-ethyl-3(3-dimethyl aminopropyl)carbodiimide hydro-chloride (EDC) and sulfa N-hydroxysuccinimide (sulfa-NHS) were added to form an amide group. An aptamer solution was introduced into the channel, into which the amide group was introduced, to couple the channel and the probe. ?
A VEGF was injected into the sensor in real time to monitor an intensity of a current flowing in the silver nanowire channel.
Specifically, 200 μL of PBS was dropped onto the FET sensor to set a base current for 30 minutes, and then, a change in current generated by injecting a specific concentration of a VEGF was observed. ?

Read-outs that look alike come from different tables or passages of the source.

As to “vascular endothelial growth factor [VEGF]”, the “change in current on injection of VEGF” value is “no difference in current” (104 pM VEGF injected), “large change” (1.04 nM VEGF injected) and “large change” (52 nM VEGF injected). Also, under “compared with the initial base current, FIG. 2B”, the “stabilized current after VEGF injection, averaged per section” value is “higher than an initial base current”.

(Values after patent US20220386863A1, “SMART CONTACT LENS FOR DIAGNOSIS AND TREATMENT OF DRY EYE SYNDROME” (priority 2020, published 2022).)
